{"source": "PubChem BioAssay (NCI)", "assay_in_all_cases": "NCI-60 cell line screen, 48 h", "key": {"[1]": {"tested_on": "SR leukemia"}, "[2]": {"tested_on": "NCI-H23 lung"}, "[3]": {"tested_on": "UO-31 renal"}, "[4]": {"tested_on": "UACC-257 melanoma"}, "[5]": {"tested_on": "SK-OV-3 ovarian"}, "[6]": {"tested_on": "OVCAR-4 ovarian"}, "[7]": {"tested_on": "PC-3 prostate"}, "[8]": {"tested_on": "EKVX NSCLC"}, "[9]": {"tested_on": "SW-620 colon"}, "[10]": {"tested_on": "MDA-MB-435"}, "[11]": {"tested_on": "NCI-H460 lung"}, "[12]": {"tested_on": "SF-539 CNS"}, "[13]": {"tested_on": "OVCAR-8 ovarian"}, "[14]": {"tested_on": "MDA-MB-231 breast"}, "[15]": {"tested_on": "K-562 leukemia"}, "[16]": {"tested_on": "SF-268 CNS"}, "[17]": {"tested_on": "SNB-19 CNS"}, "[18]": {"tested_on": "RPMI-8226 leukemia"}, "[19]": {"tested_on": "DU-145 prostate"}, "[20]": {"tested_on": "M14 melanoma"}, "[21]": {"tested_on": "UACC-62 melanoma"}, "[22]": {"tested_on": "T-47D breast"}, "[23]": {"tested_on": "OVCAR-3 ovarian"}, "[24]": {"tested_on": "786-0 renal"}, "[25]": {"tested_on": "HOP-92 NSCLC"}, "[26]": {"tested_on": "A549 NSCLC"}, "[27]": {"tested_on": "HCT-15 colon"}, "[28]": {"tested_on": "KM12 colon"}, "[29]": {"tested_on": "MCF7 breast"}, "[30]": {"tested_on": "BT-549 breast"}, "[31]": {"tested_on": "IGROV1 ovarian"}, "[32]": {"tested_on": "HOP-62 NSCLC"}, "[33]": {"tested_on": "U251 CNS"}, "[34]": {"tested_on": "SNB-75 CNS"}, "[35]": {"tested_on": "NCI-H226 lung"}, "[36]": {"tested_on": "SK-MEL-28 melanoma"}, "[37]": {"tested_on": "HL-60(TB) leukemia"}, "[38]": {"tested_on": "TK-10 renal"}, "[39]": {"tested_on": "SN12C renal"}, "[40]": {"tested_on": "HCT-116 colon"}, "[41]": {"tested_on": "CAKI-1 renal"}, "[42]": {"tested_on": "OVCAR-5 ovarian"}, "[43]": {"tested_on": "HCC-2998 colon"}, "[44]": {"tested_on": "COLO 205 colon"}, "[45]": {"tested_on": "SF-295 CNS"}, "[46]": {"tested_on": "A498 renal"}, "[47]": {"tested_on": "NCI/ADR-RES ovarian"}, "[48]": {"tested_on": "SK-MEL-2 melanoma"}, "[49]": {"tested_on": "ACHN renal"}, "[50]": {"tested_on": "MOLT-4 leukemia"}, "[51]": {"tested_on": "SK-MEL-5 melanoma"}, "[52]": {"tested_on": "NCI-H522 lung"}, "[53]": {"tested_on": "LOX IMVI melanoma"}, "[54]": {"tested_on": "HT29 colon"}}, "note": "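Step 1: Grow cells in 96-well plates. Step 2: Expose to compound for 48 hours at 5 concentrations. Step 3: Interpolate endpoints linearly; if unreached, use highest concentration. Abbreviation: GI50, concentration required for 50% inhibition of growth. TGI marks complete inhibition of growth.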", "data": [{"molecule": "CS(=O)(=O)O[C@H]1C(=O)N(c2cc3c4ccccc4ccc3c3ccccc23)[C@@H]1c1ccccc1", "values": [{"measurement": "GI50", "setting": "[1]", "result": 0.355, "unit": "µM"}, {"measurement": "TGI", "setting": "[1]", "result": "> 100", "unit": "µM"}, {"measurement": "GI50", "setting": "[2]", "result": 0.753, "unit": "µM"}, {"measurement": "TGI", "setting": "[2]", "result": "> 100", "unit": "µM"}, {"measurement": "GI50", "setting": "[3]", "result": 3.44, "unit": "µM"}, {"measurement": "TGI", "setting": "[3]", "result": "> 100", "unit": "µM"}, {"measurement": "GI50", "setting": "[4]", "result": "> 38.1", "unit": "µM"}, {"measurement": "TGI", "setting": "[4]", "result": "> 100", "unit": "µM"}, {"measurement": "GI50", "setting": "[5]", "result": 2.31, "unit": "µM"}, {"measurement": "TGI", "setting": "[5]", "result": "> 100", "unit": "µM"}, {"measurement": "GI50", "setting": "[6]", "result": "> 100", "unit": "µM"}, {"measurement": "TGI", "setting": "[6]", "result": "> 100", "unit": "µM"}, {"measurement": "GI50", "setting": "[7]", "result": 0.561, "unit": "µM"}, {"measurement": "TGI", "setting": "[7]", "result": "> 100", "unit": "µM"}, {"measurement": "GI50", "setting": "[8]", "result": 0.342, "unit": "µM"}, {"measurement": "TGI", "setting": "[8]", "result": "> 100", "unit": "µM"}, {"measurement": "GI50", "setting": "[9]", "result": 0.874, "unit": "µM"}, {"measurement": "TGI", "setting": "[9]", "result": "> 100", "unit": "µM"}, {"measurement": "GI50", "setting": "[10]", "result": 0.0232, "unit": "µM"}, {"measurement": "TGI", "setting": "[10]", "result": 0.0923, "unit": "µM"}, {"measurement": "GI50", "setting": "[11]", "result": 1.59, "unit": "µM"}, {"measurement": "TGI", "setting": "[11]", "result": "> 100", "unit": "µM"}, {"measurement": "GI50", "setting": "[12]", "result": 0.71, "unit": "µM"}, {"measurement": "TGI", "setting": "[12]", "result": 1.76, "unit": "µM"}, {"measurement": "TGI", "setting": "[13]", "result": "> 100", "unit": "µM"}, {"measurement": "GI50", "setting": "[14]", "result": 0.836, "unit": "µM"}, {"measurement": "TGI", "setting": "[14]", "result": "> 100", "unit": "µM"}, {"measurement": "GI50", "setting": "[15]", "result": 0.731, "unit": "µM"}, {"measurement": "TGI", "setting": "[15]", "result": "> 100", "unit": "µM"}, {"measurement": "GI50", "setting": "[16]", "result": 0.588, "unit": "µM"}, {"measurement": "TGI", "setting": "[16]", "result": "> 100", "unit": "µM"}, {"measurement": "TGI", "setting": "[17]", "result": "> 100", "unit": "µM"}, {"measurement": "GI50", "setting": "[18]", "result": 0.844, "unit": "µM"}, {"measurement": "TGI", "setting": "[18]", "result": "> 23.5", "unit": "µM"}, {"measurement": "GI50", "setting": "[19]", "result": 0.819, "unit": "µM"}, {"measurement": "TGI", "setting": "[19]", "result": "> 100", "unit": "µM"}, {"measurement": "GI50", "setting": "[20]", "result": 0.809, "unit": "µM"}, {"measurement": "TGI", "setting": "[20]", "result": "> 100", "unit": "µM"}, {"measurement": "GI50", "setting": "[21]", "result": 0.24, "unit": "µM"}, {"measurement": "TGI", "setting": "[21]", "result": "> 100", "unit": "µM"}, {"measurement": "GI50", "setting": "[22]", "result": "> 100", "unit": "µM"}, {"measurement": "TGI", "setting": "[22]", "result": "> 100", "unit": "µM"}, {"measurement": "GI50", "setting": "[23]", "result": 0.0617, "unit": "µM"}, {"measurement": "TGI", "setting": "[23]", "result": 0.278, "unit": "µM"}, {"measurement": "GI50", "setting": "[24]", "result": 0.287, "unit": "µM"}, {"measurement": "TGI", "setting": "[25]", "result": "> 100", "unit": "µM"}, {"measurement": "GI50", "setting": "[26]", "result": 2.18, "unit": "µM"}, {"measurement": "TGI", "setting": "[26]", "result": "> 100", "unit": "µM"}, {"measurement": "GI50", "setting": "[27]", "result": 0.408, "unit": "µM"}, {"measurement": "TGI", "setting": "[27]", "result": "> 100", "unit": "µM"}, {"measurement": "GI50", "setting": "[28]", "result": 0.216, "unit": "µM"}, {"measurement": "TGI", "setting": "[28]", "result": "> 100", "unit": "µM"}, {"measurement": "GI50", "setting": "[29]", "result": 4.33, "unit": "µM"}, {"measurement": "TGI", "setting": "[29]", "result": "> 100", "unit": "µM"}, {"measurement": "GI50", "setting": "[30]", "result": 0.17, "unit": "µM"}, {"measurement": "TGI", "setting": "[30]", "result": "> 100", "unit": "µM"}, {"measurement": "GI50", "setting": "[31]", "result": "> 100", "unit": "µM"}, {"measurement": "TGI", "setting": "[31]", "result": "> 100", "unit": "µM"}, {"measurement": "GI50", "setting": "[32]", "result": 0.388, "unit": "µM"}, {"measurement": "TGI", "setting": "[32]", "result": "> 100", "unit": "µM"}, {"measurement": "GI50", "setting": "[33]", "result": 0.457, "unit": "µM"}, {"measurement": "TGI", "setting": "[33]", "result": "> 100", "unit": "µM"}, {"measurement": "GI50", "setting": "[34]", "result": 0.656, "unit": "µM"}, {"measurement": "TGI", "setting": "[34]", "result": "> 100", "unit": "µM"}, {"measurement": "GI50", "setting": "[35]", "result": "> 100", "unit": "µM"}, {"measurement": "TGI", "setting": "[35]", "result": "> 100", "unit": "µM"}, {"measurement": "GI50", "setting": "[36]", "result": "> 100", "unit": "µM"}, {"measurement": "TGI", "setting": "[36]", "result": "> 100", "unit": "µM"}, {"measurement": "GI50", "setting": "[37]", "result": 0.532, "unit": "µM"}, {"measurement": "TGI", "setting": "[37]", "result": "> 100", "unit": "µM"}, {"measurement": "GI50", "setting": "[38]", "result": 0.616, "unit": "µM"}, {"measurement": "TGI", "setting": "[38]", "result": "> 86.9", "unit": "µM"}, {"measurement": "GI50", "setting": "[39]", "result": 0.567, "unit": "µM"}, {"measurement": "TGI", "setting": "[39]", "result": "> 100", "unit": "µM"}, {"measurement": "GI50", "setting": "[40]", "result": 0.313, "unit": "µM"}, {"measurement": "TGI", "setting": "[40]", "result": "> 100", "unit": "µM"}, {"measurement": "GI50", "setting": "[41]", "result": 0.0747, "unit": "µM"}, {"measurement": "TGI", "setting": "[41]", "result": 0.83, "unit": "µM"}, {"measurement": "GI50", "setting": "[42]", "result": 0.574, "unit": "µM"}, {"measurement": "GI50", "setting": "[43]", "result": 0.439, "unit": "µM"}, {"measurement": "TGI", "setting": "[43]", "result": 5.64, "unit": "µM"}, {"measurement": "GI50", "setting": "[44]", "result": 0.693, "unit": "µM"}, {"measurement": "TGI", "setting": "[44]", "result": "> 100", "unit": "µM"}, {"measurement": "GI50", "setting": "[45]", "result": 0.0995, "unit": "µM"}, {"measurement": "TGI", "setting": "[45]", "result": 0.4, "unit": "µM"}, {"measurement": "GI50", "setting": "[46]", "result": 0.545, "unit": "µM"}, {"measurement": "TGI", "setting": "[46]", "result": "> 100", "unit": "µM"}, {"measurement": "GI50", "setting": "[47]", "result": 0.206, "unit": "µM"}, {"measurement": "TGI", "setting": "[47]", "result": 0.94, "unit": "µM"}, {"measurement": "TGI", "setting": "[48]", "result": "> 100", "unit": "µM"}, {"measurement": "GI50", "setting": "[49]", "result": 0.332, "unit": "µM"}, {"measurement": "TGI", "setting": "[49]", "result": "> 100", "unit": "µM"}, {"measurement": "GI50", "setting": "[50]", "result": "> 100", "unit": "µM"}, {"measurement": "TGI", "setting": "[50]", "result": "> 100", "unit": "µM"}, {"measurement": "GI50", "setting": "[51]", "result": 0.766, "unit": "µM"}, {"measurement": "TGI", "setting": "[51]", "result": "> 33.5", "unit": "µM"}, {"measurement": "GI50", "setting": "[52]", "result": 1.11, "unit": "µM"}, {"measurement": "TGI", "setting": "[52]", "result": 5.65, "unit": "µM"}, {"measurement": "GI50", "setting": "[53]", "result": 0.526, "unit": "µM"}, {"measurement": "TGI", "setting": "[53]", "result": "> 100", "unit": "µM"}, {"measurement": "GI50", "setting": "[54]", "result": 0.474, "unit": "µM"}, {"measurement": "TGI", "setting": "[54]", "result": "> 100", "unit": "µM"}]}]}
